# Data from patent publication US4902791A, “Nitrosourea derivatives, process for their preparation and medicaments containing them” (Sanofi S.A., priority 1983, dated 1990).
# Experiments:
# [1] = toxicological study, lethal doses (Table IA); settings: mouse, in vivo
# Source text: The results relating to toxicology are brought together in Table IA below:
# L1210 U.S.A. strain = assay: antitumor activity on leukemia L1210 U.S.A., compounds of formula IA, I.P.; assay type: in vivo, mouse
# Protocol: On the day of the graft (by convention day 0=DO) an inoculum of 1×10^5 tumor cells in a volume of 0.2 ml is administered to each mouse by the intraperitoneal route (I.P.).
# This inoculum is prepared by diluting ascites fluid taken from the peritoneum of a donor female mouse in NCTC 109 medium (Eurobio Laboratories Paris, France), counting of the cells in a MALASSEZ cell under a microscope and adjustment of the concentration to 5×10^5cells per ml.
# After the tumor graft has been made, the mice are distributed at random in cages of 5 animals. Subsequently, these cages containing 5 mice are themselves distributed at random into a control group (control) and groups treated with the products of the invention.
# (§1) The doses of the products of the invention used in the different experiments are expressed in milligrams per kilogram of body weight.
# (§2) The products to be injected were dissolved in isotonic sodium chloride solution.
# Two protocols for treatment were used in the different experiments:
# (§3) or 3 I.P. injections on D1, D5, D9.
# (§4) In each experiment the animals of the control group received 1 or more injections, depending on the experimental protocol used, by the same route (I.P. or I.V.) of the same volume (0.2 ml/20 g) of the vehicle not containing the active principle (isotonic sodium chloride solution).
# (§5) the number and percentage of the total of the mice surviving to D60,
# (§6) the T/C×100 for treated groups.
# (§7) T representing the mean survival time of the mice in the treated group
# (§8) C representing the mean survival time of the mice in the control group (control).
# melanoma B16 [2] = assay: antitumor activity on melanoma B16, compounds of formula IA, I.P.; assay type: in vivo, mouse; settings: B6 D2 F1, I.P. D1, D5, D9, 3×10 mg/kg
# Protocol: The experiments were always carried out on SPF female mice B6 D2 F1/JIco (first generation hybrids between the lines C5BL/6 and DBA/2).
# On the day of the graft (Day 0) an inoculum of 2×10^6 tumor cells in a volume of 0.5 ml is administered to each mouse by the intraperitoneal route (I.P.). This inoculum is prepared from a sub-cutaneous tumor excised from a donor female mouse. After excision the tumor is fragmented by means of a pair of scissors in the NCTC 109 medium. After filtration through sterile gauze in order to remove large cellular fragments, the homogeneous cell suspension obtained is counted by means of a MALASSEZ cell and diluted to the desired concentration (4×10^6 tumor cells per ml) by dilution with the NCTC 109 medium.
# This was performed in the manner described previously for the leukemia L1210.
# as §1, §2, §3, §4, §5, §6, §7, §8
# melanoma B16 [3] = assay: activity toward melanoma B16 implanted subcutaneously, I.V. route; assay type: in vivo, mouse
# Protocol: The activity of the substances of the invention was also tested by administering the said substances of the invention by the I.V. route. 0.5 ml of an homogenate of the tumor (1 g/10 ml) is administered to B6C3F1 female mice by the subcutaneous (S.C. route) on day 0. The products of the invention and the substances used for comparison are administered on days 3, 7 and 11 in isotonic solution.
# In Table IIA below the results are presented relating to the activity of the substance CI. 1675 administered by the I.V. route on the growth of the melanoma B16 implanted subcutaneously, in comparison with carmustine BCNU marketed under the name of BiCNU®.
# In Table IIA below and in the subsequent tables, T represents the mean weight (or median) of the tumors in the treated mice, C represents the mean weight (or median) of the tumors in the control, untreated mice and the ratio T/C% corresponds to T/C×100.
# colon carcinoma C38 [4] = assay: activity on colon carcinoma C38 implanted subcutaneously, I.P. days 2 and 9; assay type: in vivo, mouse
# Protocol: A tumor fragment is implanted on day 0 in female B6 D2 F1 mice (19-22 g). The treatment with all of the products is administered by the I.P. route on days 2 and 9 (which is a delayed treatment). The weight of the tumors is calculated on day 20.
# colon carcinoma C38 [5] = assay: colon carcinoma C38, comparison of I.V. and I.P. routes, treatment days 8, 12, 16; assay type: in vivo, mouse; parameters: key to Median wt. of the tumor D20 / Median wt. of the tumor D27: median tumor weight in mg
# Protocol: With a view to verifying the antitumor activity of the product of the invention CI.1671 when it is administered by the I.V. route, another experiment was performed in which this product was administered by the I.P. route and the I.V. route for the purposes of comparison.
# This experiment is carried out under particularly difficult conditions, the first day of the treatment corresponding to the eighth day after the implantation of the carcinoma C38, whereas normally the treatment starts on the day of implantation of the tumor (D0) or 1 day after (D1) the implantation of the tumor.
# The median weight of the tumors on the first day of treatment (day 8) is about 12 mg (tumors varying from 8 to 40 mg). The animals are treated on days 8, 12 and 16 depending on the different routes indicated. […]
# [6] = B6 D2 F1, I.P. D1, D5, D9, 3×1.25 mg/kg
# [7] = B6 D2 F1, I.P. D1, D5, D9, 3×5 mg/kg
# [8] = I.P., 10 mg/kg/inj. days 2 and 9
# [9] = I.P., 20 mg/kg/inj. days 2 and 9
# [10] = I.P., 30 mg/kg/inj. days 2 and 9
structure (smiles),measurement,setting,value
"CO[C@@H]1O[C@H](CO)C[C@H](NC(=O)N(CCCl)N=O)[C@H]1O [CI. 1675, methyl 3-[3-(2-chloroethyl) 3-nitrosoureido] 3,4-dideoxy-β-D-xylo-hexopyranoside]",LD0,[1],≥ 20 mg/kg
same,LD50,[1],~40 mg/kg
same,Number of survivors at D60,L1210 U.S.A. strain; [6],0/10
same,T/C,L1210 U.S.A. strain; [6],164
same,Number of survivors at D60,L1210 U.S.A. strain; [7],5/10
same,T/C,L1210 U.S.A. strain; [7],> 600
same,Number of survivors at D60,melanoma B16 [2],8/10
same,T/C,melanoma B16 [2],258
same,Median weight of the tumor on day 3,"melanoma B16 [3]; 10 mg/kg/inj. days 3, 7, 11","32,0 mg"
same,Median weight of the tumor on day 30,"melanoma B16 [3]; 10 mg/kg/inj. days 3, 7, 11",2 025 mg
same,T/C on day 30 (tumor weight),"melanoma B16 [3]; 10 mg/kg/inj. days 3, 7, 11","25,9%"
same,Median weight of the tumor on day 3,"melanoma B16 [3]; 15 mg/kg/inj. days 3, 7, 11","23,0 mg"
same,Median weight of the tumor on day 30,"melanoma B16 [3]; 15 mg/kg/inj. days 3, 7, 11",1 044 mg
same,T/C on day 30 (tumor weight),"melanoma B16 [3]; 15 mg/kg/inj. days 3, 7, 11","13,4%"
same,Median weight of the tumor on day 3,"melanoma B16 [3]; 20 mg/kg/inj. days 3, 7, 11","36,0 mg"
same,Median weight of the tumor on day 30,"melanoma B16 [3]; 20 mg/kg/inj. days 3, 7, 11",688 mg
same,T/C on day 30 (tumor weight),"melanoma B16 [3]; 20 mg/kg/inj. days 3, 7, 11","8,8%"
same,efficacy against the colon carcinoma C38,"colon carcinoma C38 [4]; I.P. route, delayed treatment",considerable efficacy
same,Number of mice without tumor/total,colon carcinoma C38 [4]; [8],1/10
same,T/C,colon carcinoma C38 [4]; [8],67%
same,Weight of the tumor on day 20,colon carcinoma C38 [4]; [8],272 mg
same,Number of mice without tumor/total,colon carcinoma C38 [4]; [9],7/9
same,T/C,colon carcinoma C38 [4]; [9],0%
same,Weight of the tumor on day 20,colon carcinoma C38 [4]; [9],0 mg
same,Number of mice without tumor/total,colon carcinoma C38 [4]; [10],7/7
same,T/C,colon carcinoma C38 [4]; [10],0%
same,Weight of the tumor on day 20,colon carcinoma C38 [4]; [10],0 mg
same,dead mice (remarks),colon carcinoma C38 [4]; [10],5
same,Median wt. of the tumor D20,"colon carcinoma C38 [5]; I.P. Route, 10 mg/kg/inj.",324
same,Median wt. of the tumor D27,"colon carcinoma C38 [5]; I.P. Route, 10 mg/kg/inj.",1099
same,Mice without tumor/total D20,"colon carcinoma C38 [5]; I.P. Route, 10 mg/kg/inj.",0
same,Mice without tumor/total D27,"colon carcinoma C38 [5]; I.P. Route, 10 mg/kg/inj.",0
same,T/C % D20,"colon carcinoma C38 [5]; I.P. Route, 10 mg/kg/inj.",57%
same,T/C % D27,"colon carcinoma C38 [5]; I.P. Route, 10 mg/kg/inj.",84%
same,Median wt. of the tumor D20,"colon carcinoma C38 [5]; I.P. Route, 15 mg/kg/inj.",88
same,Median wt. of the tumor D27,"colon carcinoma C38 [5]; I.P. Route, 15 mg/kg/inj.",726
same,Mice without tumor/total D20,"colon carcinoma C38 [5]; I.P. Route, 15 mg/kg/inj.",0
same,Mice without tumor/total D27,"colon carcinoma C38 [5]; I.P. Route, 15 mg/kg/inj.",0
same,T/C % D20,"colon carcinoma C38 [5]; I.P. Route, 15 mg/kg/inj.",15%
same,T/C % D27,"colon carcinoma C38 [5]; I.P. Route, 15 mg/kg/inj.",56%
same,Median wt. of the tumor D20,"colon carcinoma C38 [5]; I.P. Route, 20 mg/kg/inj.",13
same,Median wt. of the tumor D27,"colon carcinoma C38 [5]; I.P. Route, 20 mg/kg/inj.",172
same,Mice without tumor/total D20,"colon carcinoma C38 [5]; I.P. Route, 20 mg/kg/inj.",1/8
same,Mice without tumor/total D27,"colon carcinoma C38 [5]; I.P. Route, 20 mg/kg/inj.",2/8
same,T/C % D20,"colon carcinoma C38 [5]; I.P. Route, 20 mg/kg/inj.",2%
same,T/C % D27,"colon carcinoma C38 [5]; I.P. Route, 20 mg/kg/inj.",13%
same,Median wt. of the tumor D20,"colon carcinoma C38 [5]; I.V. Route, 10 mg/kg/inj.",23
same,Median wt. of the tumor D27,"colon carcinoma C38 [5]; I.V. Route, 10 mg/kg/inj.",352
same,Mice without tumor/total D20,"colon carcinoma C38 [5]; I.V. Route, 10 mg/kg/inj.",0/8
same,Mice without tumor/total D27,"colon carcinoma C38 [5]; I.V. Route, 10 mg/kg/inj.",0/8
same,T/C % D20,"colon carcinoma C38 [5]; I.V. Route, 10 mg/kg/inj.",4%
same,T/C % D27,"colon carcinoma C38 [5]; I.V. Route, 10 mg/kg/inj.",27%
same,Median wt. of the tumor D20,"colon carcinoma C38 [5]; I.V. Route, 15 mg/kg/inj.",0
same,Median wt. of the tumor D27,"colon carcinoma C38 [5]; I.V. Route, 15 mg/kg/inj.",0
same,Mice without tumor/total D20,"colon carcinoma C38 [5]; I.V. Route, 15 mg/kg/inj.",7/8
same,Mice without tumor/total D27,"colon carcinoma C38 [5]; I.V. Route, 15 mg/kg/inj.",7/7
same,T/C % D20,"colon carcinoma C38 [5]; I.V. Route, 15 mg/kg/inj.",0%
same,T/C % D27,"colon carcinoma C38 [5]; I.V. Route, 15 mg/kg/inj.",0%
same,Median wt. of the tumor D20,"colon carcinoma C38 [5]; I.V. Route, 20 mg/kg/inj.",0
same,Median wt. of the tumor D27,"colon carcinoma C38 [5]; I.V. Route, 20 mg/kg/inj.",0
same,Mice without tumor/total D20,"colon carcinoma C38 [5]; I.V. Route, 20 mg/kg/inj.",6/8
same,Mice without tumor/total D27,"colon carcinoma C38 [5]; I.V. Route, 20 mg/kg/inj.",6/6
same,T/C % D20,"colon carcinoma C38 [5]; I.V. Route, 20 mg/kg/inj.",0%
same,T/C % D27,"colon carcinoma C38 [5]; I.V. Route, 20 mg/kg/inj.",0%
